By IC50 is commonly meant the concentration that inhibits the measured activity by half. For orientation: Ki means a measure of affinity in units of concentration, obtained from inhibition or displacement. By inhibition is commonly meant the drop in the measured response relative to a control, in per cent. Usually % Inhibition stands for the relative decrease from the control value, in per cent.

This note sets out measurements from US20080176857A1, “4-Piperazinnylthieno[2,3-d]Pyrimidine Compounds as Platelet Aggregation Inhibitors” (priority 2005, published 2008).

For this test, the target named is P2Y12 receptor (Homo sapiens, UniProt Q9H244). Briefly: [33P]-2MeS-ADP binding to recombinant human P2Y12 membranes (Assay 3). Also on record: expressed in transfected cells; host or cells: HEK cells. Particulars: for IC50 / Ki: HEK cell membranes expressing human P2Y12, competition with 33P 2MeS-ADP; for inhibition at 10 µM / % Inhibition: at highest concentration tested, 10 μM. The essentials: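 Membranes from HEK cells transfected with human P2Y12, used in competitive binding against [33P]-2MeS-ADP in Tris/NaCl/EDTA buffer with 0.02% BSA. Seven-point 3-fold dilutions from 10 μM final, 1 h at room temperature, then filtration and scintillation counting. IC50 from four-parameter fit with Hill slope fixed at one, plate controls defining min/max.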
P2Y12 receptor, sequence (Q9H244 whole entry): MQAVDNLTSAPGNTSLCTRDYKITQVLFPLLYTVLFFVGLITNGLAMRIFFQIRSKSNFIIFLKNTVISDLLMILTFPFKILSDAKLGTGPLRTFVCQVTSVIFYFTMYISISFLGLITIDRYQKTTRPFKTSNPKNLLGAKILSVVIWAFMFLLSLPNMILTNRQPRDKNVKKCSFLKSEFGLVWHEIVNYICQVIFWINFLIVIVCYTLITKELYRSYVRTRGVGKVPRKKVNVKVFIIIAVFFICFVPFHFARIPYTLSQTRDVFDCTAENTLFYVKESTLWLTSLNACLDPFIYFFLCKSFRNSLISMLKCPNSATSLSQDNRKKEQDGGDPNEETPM

Structures are written as SMILES. Values joined by “and” are separate entries in the source; they are usually repeats but may differ in a detail not shown here. Equal entries are not always repeated. Some results are limits rather than exact numbers.

`CCc1cc2c(N3CCN(C(=O)c4cccc(OC)c4)CC3)nc(SCC(=O)OC)nc2s1` [Example 75, Methyl ({6-ethyl-4-[4-(3-methoxybenzoyl)piperazin-1-yl]thieno[2,3-d]pyrimidin-2-yl}thio)acetate]: the IC50 was 3500 nM, the Ki was 2250 nM and the inhibition at 10 µM worked out at 70.5%.

As to `CCc1cc2c(N3CCN(C(=O)c4ccc(C#N)cc4)CC3)nc(SCC(=O)OC)nc2s1` [Example 52, Methyl ({4-[4-(4-cyanobenzoyl)piperazin-1-yl]-6-ethylthieno[2,3-d]pyrimidin-2-yl}thio)acetate], the IC50 is 2670 nM, the inhibition constant (Ki) amounted to 1780 nM and the inhibition at 10 µM was 67.7%.

On to `CCc1cc2c(N3CCN(C(=O)c4cccc(N(C)C)c4)CC3)nc(SCC(=O)OC)nc2s1` [Example 74, Methyl [(4-{4-[3-(dimethylamino)benzoyl]piperazin-1-yl}-6-ethylthieno[2,3-d]pyrimidin-2-yl)thio]acetate], for which the IC50 was 5740 nM, the inhibitory constant (Ki) came out at 3690 nM and the inhibition at 10 µM was determined as 59%.

`CCc1cc2c(N3CCN(C(=O)CCCCC(=O)OC)CC3)nc(SCC(=O)OC)nc2s1` [Example 43, Methyl 6-(4-{6-ethyl-2-[(2-methoxy-2-oxoethyl)thio]thieno[2,3-d]pyrimidin-4-yl}piperazin-1-yl)-6-oxohexanoate]: the half-maximal inhibitory concentration (IC50) was determined as 2380 nM, the Ki was determined as 1580 nM and the inhibition at 10 µM amounted to 78.2%.

Turning to `CCc1cc2c(N3CCN(C(=O)c4ccc5nccnc5c4)CC3)nc(SCC(=O)OC)nc2s1` [Example 77, Methyl ({6-ethyl-4-[4-(quinoxalin-6-ylcarbonyl)piperazin-1-yl]thieno[2,3-d]pyrimidin-2-yl}thio)acetate], the concentration for half-maximal inhibition (IC50) was 4850 nM, the Ki was found to be 2810 nM and the inhibition at 10 µM stood at 63.4%.

Turning to `CCc1cc2c(N3CCN(C(=O)Cc4ccccc4)CC3)nc(SCCc3ccncc3)nc2s1` [Example 26, 6-Ethyl-4-[4-(phenylacetyl)piperazin-1-yl]-2-[(2-pyridin-4-ylethyl)thio]thieno[2,3-d]pyrimidine], the concentration for half-maximal inhibition (IC50) is 800 nM; the Ki is 460 nM and 430 nM; the “% Inhibition” value turned out to be 88.94%; the inhibition at 10 µM was found to be 88.7%.

Consider `CCc1cc2c(N3CCN(C(=O)/C=C/c4ccccc4)CC3)nc(SCC(=O)OC)nc2s1` [Example 47, Methyl [(6-ethyl-4-{4-[(2E)-3-phenylprop-2-enoyl]piperazin-1-yl}thieno[2,3-d]pyrimidin-2-yl)thio]acetate], for which the IC50 was determined as 5440 nM, the Ki came out at 3630 nM and the inhibition at 10 µM was found to be 48.6%.

`C#CCCC(=O)N1CCN(c2nc(SCC(=O)OC)nc3sc(CC)cc23)CC1` [Example 37, Methyl {[6-ethyl-4-(4-pent-4-ynoylpiperazin-1-yl)thieno[2,3-d]pyrimidin-2-yl]thio}acetate]: the IC50 is 1250 nM, the Ki is 840 nM and the inhibition at 10 µM was determined as 78.3%.

`CCc1cc2c(N3CCN(C(=O)CCOC)CC3)nc(SCC(=O)OC)nc2s1` [Example 58, Methyl ({6-ethyl-4-[4-(3-methoxypropanoyl)piperazin-1-yl]thieno[2,3-d]pyrimidin-2-yl}thio)acetate]: the IC50 amounted to 5250 nM, the Ki stood at 2620 nM and the inhibition at 10 µM was found to be 53.6%.

On to `CCc1cc2c(N3CCN(C(=O)c4nnc(-c5ccccc5)o4)CC3)nc(SCC(=O)OC)nc2s1` [Example 70, Methyl [(6-ethyl-4-{4-[(5-phenyl-1,3,4-oxadiazol-2-yl)carbonyl]piperazin-1-yl}thieno[2,3-d]pyrimidin-2-yl)thio]acetate], for which the IC50 stood at 144 nM, the Ki worked out at 89 nM and the inhibition at 10 µM was found to be 82.1%.

As for `CCc1cc2c(N3CCN(C(=O)c4ccc(-n5cccn5)cc4)CC3)nc(SCC(=O)OC)nc2s1` [Example 48, Methyl [(6-ethyl-4-{4-[4-(1H-pyrazol-1-yl)benzoyl]piperazin-1-yl}thieno[2,3-d]pyrimidin-2-yl)thio]acetate], the IC50 turned out to be 190 nM, the Ki was determined as 130 nM and the inhibition at 10 µM came to 95.8%.

As to `CCc1cc2c(N3CCN(C(=O)c4ccccc4)CC3)nc(SCC(=O)OC)nc2s1` [Example 56, Methyl {[4-(4-benzoylpiperazin-1-yl)-6-ethylthieno[2,3-d]pyrimidin-2-yl]thio}acetate], the IC50 was determined as 3040 nM, the Ki was found to be 1520 nM and the inhibition at 10 µM amounted to 64.1%.

Consider `CCc1cc2c(N3CCN(C(=O)Cc4ccccc4)CC3)nc(SCC(=O)O)nc2s1` [Example 83, ({6-ethyl-4-[4-(phenylacetyl)piperazin-1-yl]thieno[2,3-d]pyrimidin-2-yl}thio)acetic acid], for which the half-maximal inhibitory concentration (IC50) is 230 nM and 940 nM and 430 nM and 470 nM; the inhibitory constant (Ki) was 127 nM and 540 nM and 240 nM and 270 nM; the “% Inhibition” value was 90.75% and 91.85% and 86.17%; the inhibition at 10 µM amounted to 92%.

As for `CCc1cc2c(N3CCN(C(=O)c4ccc(C(F)(F)F)cc4)CC3)nc(SCC(=O)OC)nc2s1` [Example 46, Methyl [(6-ethyl-4-{4-[4-(trifluoromethyl)benzoyl]piperazin-1-yl}thieno[2,3-d]pyrimidin-2-yl)thio]acetate], the IC50 was above 10000 nM, the Ki was above 6700 nM and the inhibition at 10 µM was 41.8%.

Regarding `CCc1cc2c(N3CCN(C(=O)Cc4ccccc4)CC3)nc(SCCNC(C)=O)nc2s1` [Example 15, N-[2-({6-Ethyl-4-[4-(phenylacetyl)piperazin-1-yl]thieno[2,3-d]pyrimidin-2-yl}thio)ethyl]acetamide], the IC50 worked out at 300 nM, the inhibition constant (Ki) was determined as 170 nM, the “% Inhibition” value was found to be 92.26% and the inhibition at 10 µM is 87%.

For the compound `CCc1cc2c(N3CCN(C(=O)Cc4ccccc4)CC3)nc(SCC(O)CO)nc2s1` (stereo not shown) [Example 12, 3-({6-Ethyl-4-[4-(phenylacetyl)piperazin-1-yl]thieno[2,3-d]pyrimidin-2-yl}thio)propane-1,2-diol], the IC50 is 340 nM and 370 nM; the Ki is 200 nM and 210 nM; the “% Inhibition” value came out at 92.83%; the inhibition at 10 µM came to 83.4%.

As to `CCc1cc2c(N3CCN(C(=O)CCC4CCCC4)CC3)nc(SCC(=O)OC)nc2s1` [Example 40, Methyl ({4-[4-(3-cyclopentylpropanoyl)piperazin-1-yl]-6-ethylthieno[2,3-d]pyrimidin-2-yl}thio)acetate], the half-inhibitory concentration (IC50) was found to be 4150 nM, the inhibition constant Ki was 2760 nM and the inhibition at 10 µM is 59%.
